Target: T1, human IRAK4 (Homo sapiens, UniProt Q9NWZ3)
T1 construct: purchased Carna
T1 sequence (Q9NWZ3 1-460): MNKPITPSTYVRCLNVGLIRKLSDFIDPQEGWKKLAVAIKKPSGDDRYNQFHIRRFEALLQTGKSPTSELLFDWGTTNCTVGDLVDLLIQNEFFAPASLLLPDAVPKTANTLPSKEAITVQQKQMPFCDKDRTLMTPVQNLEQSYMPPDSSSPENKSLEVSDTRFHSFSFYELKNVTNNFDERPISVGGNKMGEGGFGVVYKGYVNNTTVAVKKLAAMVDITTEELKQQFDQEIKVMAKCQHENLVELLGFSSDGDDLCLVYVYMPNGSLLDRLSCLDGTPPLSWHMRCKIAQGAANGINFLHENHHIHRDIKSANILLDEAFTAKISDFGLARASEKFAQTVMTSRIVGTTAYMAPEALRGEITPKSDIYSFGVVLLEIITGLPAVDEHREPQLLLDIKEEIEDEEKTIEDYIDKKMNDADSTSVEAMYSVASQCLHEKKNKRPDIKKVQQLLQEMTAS
Assay: IRAK4 MSA (Mobility-Shift Assay), inhibition of human IRAK4 kinase activity
Type: biochemical
Conditions: GST-IRAK4 1 nM, ATP at Km concentration (37 μM), 28° C. for 1 h, Caliper EZ Reader; read-out: IC50 against human IRAK4 kinase activity
Procedure: The inhibitory activity of the compounds against IRAK4 at the Km concentration of ATP was measured in IRAK4 MSA (Mobility-Shift Assay, a mobility detection of microfluidic chip technology).
A recombinant fusion protein of N-terminal GST (glutathione-S-transferase) and human IRAK4 was used as enzyme (GST-IRAK4, kinase IRAK4 (Carna)) at a final concentration of 1 nM; ATP (Sigma) was at a final concentration of 37 μM; the substrates used for the kinase reaction were 5-FAM (5-carboxyfluorescein)-labeled polypeptide (5-FAM-IPTSPITTTYFFFKKK-COOH) and substrate peptide FAM-P8 (GL Biochem) at final concentrations of 5 μM.
In this assay, a 500 μM stock solution of the compounds was prepared in 100% DMSO, and serially 4-fold diluted to the 10th concentrations with 100% DMSO, followed by a 10-fold dilution with the compound buffer (50 mM HEPES, pH 7.5, 0.00015% Brij-35) to give intermediate dilutions of the compounds at final concentrations of 10 μM-0.04 nM containing 10% DMSO. The intermediate dilutions was transferred into a black 384-well plate at a volume of 5μL.
Kinase IRAK4 was diluted to 2.5 nM with the kinase buffer (50 mM HEPES, pH 7.5, 0.00015% Brij-35, 2 mM DTT). 10 μL of the IRAK4 dilution was transferred to the 384-well plate and co-incubated with the compound for 10-15 min.
The substrate and ATP were diluted to 12.5 μM and 92.5 μM with reaction buffer (50 mM HEPES, pH 7.5, 0.00015% Brij-35, 10 mM MgCl2), respectively. 10 μL of the dilutions was transferred to the 384-well plate and incubated at 28° C. for 1 h. The reaction was terminated by adding 25 μL of 50 mM EDTA to the 384-well plate.
The inhibition rates of IRAK4 by the compounds were calculated by measuring the conversion rate of phosphorylation of the substrate using a Caliper EZ Reader (PerkinElmer) and the IC50 was calculated by XL-fit software.

Molecule | IC50 [nM]
COc1cc2nn([C@H]3C[C@H](C(C)(C)O)C3)cc2cc1NC(=O)c1cccc(C(F)(F)F)n1 [Compound 1, 6-trifluoromethyl-pyridine-2-carbomoylic acid {2-[3′-(1-hydroxy-1-methyl-ethyl)-cyclobutyl]-6-methoxy-2H-indazol-5-yl} -amide] | 1.1
quinoline-8-carbomoylic acid [2-(4′-hydroxy-4-methyl-cyclohexyl)-6-methoxy-2H-indazol-5-yl]-amide [Compound 3] | 3.3
COc1cc2nn([C@H]3CC[C@](C)(O)CC3)cc2cc1NC(=O)c1cccc(C)[n+]1[O-] [Compound 4, 6-methyl-1oxo-pyridine-2-carbomoylic acid [2-(4′-hydroxy-4-methyl-cyclohexyl)-6-methoxy-2H-indazol-5-yl]-amide] | 4.6
COc1cc2nn([C@H]3CC[C@H](O)CC3)cc2cc1NC(=O)c1cccc(C2CC2)[n+]1[O-] [Compound 2, 6-cyclopropyl-1-oxy-pyridine-2-carbomoylic acid [2-(4′-hydroxy-trans-cyclohexyl)-6-methoxy-2H-indazol-5-yl]-amide] | 2.5

— patent publication US20230250064A1, “PREPARATION METHOD FOR FUSED PYRAZOLE-TYPE COMPOUND” (SHANGHAI MEIYUE BIOTECH DEVELOPMENT CO., LTD., priority 2020, published 2023)
